We go through 33 molecules from ChEMBL document CHEMBL3988442, “University of Dundee, Small-Polar-MMV Screening Library” (2021).

Assay [1] in a line: microbe, parasite or virus in culture. The following applies: Mycobacterium tuberculosis, 72 h, read-out: pIC50 (converted).
Assay [2] can be described thus: microbe, parasite or virus in culture. The following applies: Mycobacterium tuberculosis, 96 h, read-out: pIC50 (converted).

As to `Cc1ccc2nc(-c3cnc(N)nc3)c(C)c(C(=O)N(C)C)c2c1`, the IC50 in assay [1] and in assay [2] was > 50.1 µM in each case.
In the case of `OCC(O)CSCc1ncc(-c2cccc(Cl)c2)o1` (stereo unspecified), the values for the IC50 in assay [1] and in assay [2] were 211 µM and > 501 µM, respectively.
In the same order, the values of `N#Cc1ccc(NC(=O)Cn2ccnc2)cc1` are > 501 µM and > 501 µM.
The corresponding values for `O=c1c2sccc2nc2n1CCN(Cc1ccc(F)c(F)c1)CC2` are > 50.1 µM and 4.05 µM.
In the case of `CC(C)n1cc(Br)cc1C(=O)NC1=NCCS1`, the figures for the IC50 in assay [1] and in assay [2] were 177 µM and > 501 µM, respectively.
In the same order, the values of `COC(=O)c1csc(NC(=O)CCn2cccn2)c1` are 303 µM and > 501 µM.
Take `Cc1nc(-c2c[nH]c(C(=O)N3CCCC3)c2)cs1`: the IC50 was 241 µM in assay [1] and 427 µM in assay [2].
`CCOc1cccc(CCN)n1`: the figures for the IC50 in assay [1] and in assay [2] were 234 µM and > 501 µM, respectively.
In the same order, the values of `CC(C1CC1)N(C)Cc1nnc(-c2ccc(Br)s2)o1` (stereo unspecified) are 2.95 µM and 42.1 µM.
The corresponding values for `OCCNCCNCc1cccc(Cl)c1Cl` are 199 µM and 33.1 µM.
Consider `NCC(NS(=O)(=O)CCc1cccs1)C1CC1` (stereo unspecified), for which the results for the IC50 in assay [1] and in assay [2] were 167 µM and 47.8 µM, respectively.
The corresponding values for `CCC1CN(C(=O)c2ccc3ccccc3n2)CCO1` (stereo unspecified) are 97.4 µM and > 501 µM.
In the same order, the values of `CCNc1ncc(C(=O)N2CCOC(CCCC(C)C)C2)cn1` (stereo unspecified) are > 50.1 µM and 43 µM.
In the same order, the values of `CNCc1nc(C(F)(F)F)no1` are > 501 µM and > 501 µM.
Take `O=c1c2ccccc2nc2n1C(CSc1ccc(F)cc1)CN2` (stereo unspecified): the IC50 in assay [1] and in assay [2] was > 50.1 µM in each case.
Take `Cc1nnc(SCCN)s1`: the IC50 in assay [1] and in assay [2] was > 501 µM throughout.
As to `NC(=O)CC1CCN(C(=O)Cc2ccc(Cl)cc2)CC1`, the IC50 in assay [1] and in assay [2] was > 501 µM in each case.
Consider `Cc1nc2c(c(N3CCC(CCn4cccn4)CC3)n1)CCNCC2`, for which the IC50 in assay [1] and in assay [2] was > 50.1 µM in each case.
As to `c1ccc(CN2CCCN(c3ccccn3)CC2)nc1`, the IC50 in assay [1] was 196 µM; in assay [2], 236 µM.
In the same order, the values of `CCn1ccc(C(=O)N(C)Cc2cccnc2OC)n1` are > 501 µM and 212 µM.
In the same order, the values of `CN(CCC#N)C(=O)COC(=O)c1ccccc1Br` are 139 µM and > 501 µM.
The corresponding values for `FC1(F)CCNCC12CCN(c1ncccn1)C2` (stereo unspecified) are > 50.1 µM and > 50.1 µM.
In the case of `NC(=O)C(N)c1ccc2c(c1)OCCO2` (stereo unspecified), the IC50 in assay [1] and in assay [2] was > 501 µM throughout.
As to `NCCSCc1ccccc1F`, the values for the IC50 in assay [1] and in assay [2] were 231 µM and 275 µM, respectively.
On to `Cc1ccc2[nH]c(CN)nc2c1C`, for which the IC50 is 246 µM in assay [1] and > 501 µM in assay [2].
The corresponding values for `Cc1cc(C(=O)NCC(CO)c2ccccc2)ns1` (stereo unspecified) are 103 µM and 130 µM.
In the same order, the values of `O=C(NC1CC1)c1cccc(CNc2ccccn2)c1` are 220 µM and > 501 µM.
As to `N[C@@H]1CCN(Cc2cc(F)cc(C(F)(F)F)c2)C[C@H]1O`, the IC50 in assay [1] is 266 µM; in assay [2] it was > 501 µM.
The corresponding values for `CNC(=O)CCSc1ccc2c(c1)OCCO2` are 143 µM and 165 µM.
In the same order, the values of `COc1cc(CCC(=O)N2CCC(c3cc4nccnc4[nH]3)CC2)on1` are 30.7 µM and > 50.1 µM.
As for `N[C@@H]1C[C@H]1c1c(F)cccc1F`, the IC50 in assay [1] and in assay [2] was > 501 µM in each case.
As for `CCCn1cnnc1-c1nc2c([nH]1)CC(c1ccc(Cl)cc1)CNC2=O` (stereo unspecified), the IC50 in assay [1] was 17.5 µM; in assay [2], 14.2 µM.
In the same order, the values of `Clc1ccc(COCC2CCN(Cc3ccccn3)CC2)cc1` are 26.2 µM and 26.8 µM.
